# Experimental data: PMC9681850, “Structural basis of synthetic agonist activation of the nuclear receptor REV-ERB” (Nature Communications, 2022)
# pKi: −log10 of the molar value. Values joined by “and” are separate entries in the source; they are usually repeats but may differ in a detail not shown here. Identical values can stand only once.
# Legend:
# [1] = tested on: REV-ERBα F497A, F443A, L480A, F439A, and F484A; test: two-hybrid reporter assay with mutant receptors; assay type: cell-based, human; conditions: F484A vs WT
# Experimental: The removal of the bulkier Phe488 sidechain may allow for the ligand binding pocket to wrap around the ligand more tightly, which may explain the higher activity of this mutant REV-ERB.
# The NCoR-Vp16 plasmid and REV-ERBα/β-FL GAL4-DBD wild-type or point mutation plasmids were incubated with the transfection agent, Lipofectamine 2000. GFP plasmid was also in the transfection mix to confirm transfection efficiency. HEK cells were plated in 10 cm dishes for western blot analysis, and HEK UAS-luc cells were plated in 96 well plates for luciferase assay analysis. Prior to cellular adherence, transfection mix was added. The cells and transfection mix were incubated at 37 °C in a humidified atmosphere of 5% CO2. The transfection incubation lasted overnight for luciferase assays and 48 h for protein isolation/western blot analysis. For luciferase assays, REV-ERB agonists were added in an 11-point serial dilution the day following overnight transfection. Cells were incubated with the compound for 24 h, prior to luciferin addition and luminescence read out.
# HepG2 cells = test: cell viability by crystal violet staining; assay type: cell-based, human; conditions: for cell viability (Fig 2a source data): crystal violet, normalized to DMSO, single replicates
# Experimental: Cellular viability was tested in two cell types, human hepatocarcinoma HepG2 cells and proliferating C2C12 mouse myoblast cells.
# Data are presented as mean ± SEM. Source data are available as a Source Data file.
# The human hepatocellular carcinoma cell line, HepG2 cells (ATCC HB-8065), were cultured in 10% FBS 1% L-Glu MEM at 37 °C in a humidified atmosphere of 5% CO2. Prior to RNA extraction cells were treated with either DMSO or REV-ERB agonist for 24 h. The C2C12 proliferating mouse myoblast cells (ATCC, CRL-1772) were cultured in 10% FBS DMEM at 37 °C in a humidified atmosphere of 5% CO2. Prior to RNA extraction cells were treated with either DMSO or REV-ERB agonist for 24 h. […]
# […] Media was removed, and cells were incubated with 0.5% crystal violet solution for 20 min at room temperature with mild agitation. Cells were washed four times with tap water before being air drying overnight. Cells were incubated in methanol for 20 min with mild agitation. Absorbance was read at 570 nm, and readings were normalized to vehicle (DMSO) treated cells.
# [2] = tested on: 43 targets (GPCRs, ion channels, transporters, and other drug targets); test: NIMH PDSP radioligand displacement panel; assay type: binding; conditions: of the 43 targets assessed
# Source text: We assessed the specificity of STL1267 using both in house nuclear receptor Gal4-NR reporter assays and the NIMH Psychoactive Drug Screening Program (PDSP) assays. We assessed the specificity of STL1267 in the PDSP’s radioligand displacement assays, screening for binding to off-target GPCRs, ion channels, transporters, and other drug targets (Table S1). Of the 43 targets assessed in this panel, we observed no detectable binding in 41 of them. […] Additional assessment in serotonin transporter and kappa opioid receptor activity in a functional assay may be warranted to determine absolute specificity. […]
# (§1) Receptor RLBA Ki Receptor activity
# (§2) Suppl ementary Tabl e 1. Speci fi ci ty of STL1267. […]
# 5-HT1A = target: T1, 5-HT1A (Homo sapiens, UniProt P08908); test: PDSP radioligand binding assay; conditions: read-out: RLBA Ki
# T1 construct: NIMH Psychoactive Drug Screening Program (assay performed there)
# T1 sequence (P08908 whole entry, species assumed): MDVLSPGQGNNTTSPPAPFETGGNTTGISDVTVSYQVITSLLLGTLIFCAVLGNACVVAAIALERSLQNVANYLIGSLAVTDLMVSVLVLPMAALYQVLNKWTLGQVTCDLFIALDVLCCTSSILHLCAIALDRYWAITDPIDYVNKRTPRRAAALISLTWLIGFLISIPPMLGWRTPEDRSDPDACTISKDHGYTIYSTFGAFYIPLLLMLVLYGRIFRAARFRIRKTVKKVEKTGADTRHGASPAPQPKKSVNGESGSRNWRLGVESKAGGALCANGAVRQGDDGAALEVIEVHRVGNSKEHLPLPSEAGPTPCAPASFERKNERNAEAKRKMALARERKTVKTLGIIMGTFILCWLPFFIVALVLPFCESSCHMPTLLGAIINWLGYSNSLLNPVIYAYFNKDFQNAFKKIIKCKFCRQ
# Source text: as §1, §2
# 5-HT1D = target: T2, 5-HT1D (Homo sapiens, UniProt P28221); test: PDSP radioligand binding assay; conditions: read-out: RLBA Ki
# T2 construct: NIMH Psychoactive Drug Screening Program (assay performed there)
# T2 sequence (P28221 whole entry, species assumed): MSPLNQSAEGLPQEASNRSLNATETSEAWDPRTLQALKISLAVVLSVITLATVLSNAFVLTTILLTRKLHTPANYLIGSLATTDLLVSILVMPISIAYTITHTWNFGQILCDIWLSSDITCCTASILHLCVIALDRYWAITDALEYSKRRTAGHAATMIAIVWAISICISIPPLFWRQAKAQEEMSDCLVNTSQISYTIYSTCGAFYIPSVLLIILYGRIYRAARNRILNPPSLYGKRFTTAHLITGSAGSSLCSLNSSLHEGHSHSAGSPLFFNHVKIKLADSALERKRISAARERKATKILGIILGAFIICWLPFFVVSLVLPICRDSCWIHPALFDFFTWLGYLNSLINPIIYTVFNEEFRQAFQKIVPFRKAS
# Source text: as §1, §2
# 5-HT1E = target: T3, 5-HT1E (Homo sapiens, UniProt P28566); test: PDSP radioligand binding assay; conditions: read-out: RLBA Ki
# T3 construct: NIMH Psychoactive Drug Screening Program (assay performed there)
# T3 sequence (P28566 whole entry, species assumed): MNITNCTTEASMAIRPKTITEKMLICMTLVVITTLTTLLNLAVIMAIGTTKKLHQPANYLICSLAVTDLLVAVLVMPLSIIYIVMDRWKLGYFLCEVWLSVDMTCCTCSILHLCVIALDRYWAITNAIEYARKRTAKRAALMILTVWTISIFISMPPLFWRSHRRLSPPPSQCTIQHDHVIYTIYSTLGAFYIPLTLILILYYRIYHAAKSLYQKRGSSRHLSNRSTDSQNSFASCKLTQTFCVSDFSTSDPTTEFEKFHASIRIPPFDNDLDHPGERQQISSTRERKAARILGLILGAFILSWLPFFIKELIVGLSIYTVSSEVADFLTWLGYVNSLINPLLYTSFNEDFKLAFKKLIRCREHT
# Source text: as §1, §2
# Alpha1D = target: T4, Alpha1D (Homo sapiens, UniProt P25100); test: PDSP radioligand binding assay; conditions: read-out: RLBA Ki
# T4 construct: NIMH Psychoactive Drug Screening Program (assay performed there)
# T4 sequence (P25100 whole entry): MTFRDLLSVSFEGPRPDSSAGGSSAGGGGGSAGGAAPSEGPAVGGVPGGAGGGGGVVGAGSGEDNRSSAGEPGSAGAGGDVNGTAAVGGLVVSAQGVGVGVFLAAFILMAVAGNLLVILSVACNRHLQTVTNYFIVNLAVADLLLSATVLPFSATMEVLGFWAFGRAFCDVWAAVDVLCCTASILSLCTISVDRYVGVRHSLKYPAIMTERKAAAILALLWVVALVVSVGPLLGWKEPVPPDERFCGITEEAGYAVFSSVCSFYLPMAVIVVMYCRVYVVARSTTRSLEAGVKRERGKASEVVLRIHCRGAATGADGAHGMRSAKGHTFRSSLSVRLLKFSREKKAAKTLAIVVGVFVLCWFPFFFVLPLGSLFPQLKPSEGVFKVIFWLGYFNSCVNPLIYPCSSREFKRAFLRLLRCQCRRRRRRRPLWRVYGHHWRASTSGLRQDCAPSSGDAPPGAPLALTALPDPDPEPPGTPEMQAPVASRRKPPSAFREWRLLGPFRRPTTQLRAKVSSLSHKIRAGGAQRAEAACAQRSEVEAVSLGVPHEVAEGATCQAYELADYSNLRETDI
# Source text: as §1, §2
# Alpha2C = target: T5, Alpha2C (Homo sapiens, UniProt P18825); test: PDSP radioligand binding assay; conditions: read-out: RLBA Ki
# T5 construct: NIMH Psychoactive Drug Screening Program (assay performed there)
# T5 sequence (P18825 whole entry): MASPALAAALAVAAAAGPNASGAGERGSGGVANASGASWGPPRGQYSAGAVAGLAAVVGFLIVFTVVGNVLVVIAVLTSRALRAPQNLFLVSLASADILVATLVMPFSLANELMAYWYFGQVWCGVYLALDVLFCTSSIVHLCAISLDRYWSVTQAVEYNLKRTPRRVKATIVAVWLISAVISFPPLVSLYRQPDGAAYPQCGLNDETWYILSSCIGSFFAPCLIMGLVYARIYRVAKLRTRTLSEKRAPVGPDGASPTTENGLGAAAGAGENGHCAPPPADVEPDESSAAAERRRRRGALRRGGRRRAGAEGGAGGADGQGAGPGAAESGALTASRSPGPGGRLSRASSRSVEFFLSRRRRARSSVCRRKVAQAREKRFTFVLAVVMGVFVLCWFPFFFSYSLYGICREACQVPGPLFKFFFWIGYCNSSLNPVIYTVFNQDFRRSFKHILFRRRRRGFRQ
# Source text: as §1, §2
# BZP Rat Brain Site = test: PDSP radioligand binding assay; conditions: read-out: RLBA Ki
# Source text: as §1, §2
# Beta2 = Beta2 (Homo sapiens, UniProt P07550); test: PDSP radioligand binding assay; conditions: read-out: RLBA Ki
# Source text: as §1, §2
# M1 = M1 (Homo sapiens, UniProt P11229); test: PDSP radioligand binding assay; conditions: read-out: RLBA Ki
# Chain of M1 (P11229 whole entry): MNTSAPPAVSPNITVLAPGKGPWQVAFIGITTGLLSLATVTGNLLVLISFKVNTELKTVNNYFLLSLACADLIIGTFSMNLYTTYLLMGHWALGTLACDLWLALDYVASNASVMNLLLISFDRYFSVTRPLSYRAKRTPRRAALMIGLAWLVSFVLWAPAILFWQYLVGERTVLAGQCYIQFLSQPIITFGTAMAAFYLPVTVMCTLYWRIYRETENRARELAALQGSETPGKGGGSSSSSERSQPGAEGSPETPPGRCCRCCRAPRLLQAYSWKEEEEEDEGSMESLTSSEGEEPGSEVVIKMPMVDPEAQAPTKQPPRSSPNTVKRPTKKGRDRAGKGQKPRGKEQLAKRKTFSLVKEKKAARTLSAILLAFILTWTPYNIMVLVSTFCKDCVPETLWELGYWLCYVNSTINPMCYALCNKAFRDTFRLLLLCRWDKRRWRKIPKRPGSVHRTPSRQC
# Source text: as §1, §2
# AR = AR (Homo sapiens, UniProt P10275); test: Gal4-UAS reporter assay for nuclear receptor specificity; assay type: cell-based; conditions: Gal4 DBD-NR, HEK293 cells, 10 µM
# Chain of AR (P10275 669-920 limits assumed): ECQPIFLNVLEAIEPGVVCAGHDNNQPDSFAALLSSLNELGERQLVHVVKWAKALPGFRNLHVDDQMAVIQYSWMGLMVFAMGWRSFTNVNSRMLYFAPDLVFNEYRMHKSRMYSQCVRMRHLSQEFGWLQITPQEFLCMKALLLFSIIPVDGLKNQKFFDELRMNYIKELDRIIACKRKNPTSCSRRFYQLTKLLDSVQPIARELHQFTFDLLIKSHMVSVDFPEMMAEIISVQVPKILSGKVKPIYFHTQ
# Source text: (§3) We assessed the specificity of STL1267 using both in house nuclear receptor Gal4-NR reporter assays and the NIMH Psychoactive Drug Screening Program (PDSP) assays. We assessed the specificity of STL1267 in the PDSP’s radioligand displacement assays, screening for binding to off-target GPCRs, ion channels, transporters, and other drug targets (Table S1). Of the 43 targets assessed in this panel, we observed no detectable binding in 41 of them. […] Additional assessment in serotonin transporter and kappa opioid receptor activity in a functional assay may be warranted to determine absolute specificity.
# as §1, §2
# (§4) HEK293 cells transfected with Gal4-UAS l uc i f eras e and […]
# ERα = ERα (Homo sapiens, UniProt P03372); test: as above; assay type: cell-based; conditions: Gal4 DBD-NR, HEK293 cells, 10 µM; ERa
# Chain of ERα (P03372 311-547 limits assumed): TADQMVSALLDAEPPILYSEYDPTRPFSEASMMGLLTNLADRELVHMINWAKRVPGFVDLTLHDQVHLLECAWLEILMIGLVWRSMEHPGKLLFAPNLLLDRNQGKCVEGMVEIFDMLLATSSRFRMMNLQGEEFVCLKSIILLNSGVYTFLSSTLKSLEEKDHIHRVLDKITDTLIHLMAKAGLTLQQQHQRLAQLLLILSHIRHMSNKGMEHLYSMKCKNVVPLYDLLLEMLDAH
# Source text: as §3, §1, §2, §4
# ERβ = ERβ (Homo sapiens, UniProt Q92731); test: as above; assay type: cell-based; conditions: Gal4 DBD-NR, HEK293 cells, 10 µM; ERb
# Chain of ERβ (Q92731 264-498 limits assumed): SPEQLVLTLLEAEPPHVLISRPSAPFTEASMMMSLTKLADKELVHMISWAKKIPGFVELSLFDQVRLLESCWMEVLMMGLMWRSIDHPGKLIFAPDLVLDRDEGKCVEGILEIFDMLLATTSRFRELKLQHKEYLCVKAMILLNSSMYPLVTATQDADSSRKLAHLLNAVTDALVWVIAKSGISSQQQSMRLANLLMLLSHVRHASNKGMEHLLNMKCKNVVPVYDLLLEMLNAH
# Source text: as §3, §1, §2, §4
# LXRα = LXRα (Homo sapiens, UniProt Q13133); test: as above; assay type: cell-based; conditions: Gal4 DBD-NR, HEK293 cells, 10 µM; LXRa
# Chain of LXRα (Q13133 209-447 limits assumed): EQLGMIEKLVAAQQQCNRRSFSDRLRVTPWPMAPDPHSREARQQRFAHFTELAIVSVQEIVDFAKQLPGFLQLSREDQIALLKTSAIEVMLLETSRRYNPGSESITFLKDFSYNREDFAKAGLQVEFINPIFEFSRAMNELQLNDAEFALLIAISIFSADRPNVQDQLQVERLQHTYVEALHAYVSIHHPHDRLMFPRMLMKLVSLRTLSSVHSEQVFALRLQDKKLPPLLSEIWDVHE
# Source text: as §3, §1, §2, §4
# MR = MR (Homo sapiens, UniProt P08235); test: as above; assay type: cell-based; conditions: Gal4 DBD-NR, HEK293 cells, 10 µM
# Chain of MR (P08235 726-984 limits assumed): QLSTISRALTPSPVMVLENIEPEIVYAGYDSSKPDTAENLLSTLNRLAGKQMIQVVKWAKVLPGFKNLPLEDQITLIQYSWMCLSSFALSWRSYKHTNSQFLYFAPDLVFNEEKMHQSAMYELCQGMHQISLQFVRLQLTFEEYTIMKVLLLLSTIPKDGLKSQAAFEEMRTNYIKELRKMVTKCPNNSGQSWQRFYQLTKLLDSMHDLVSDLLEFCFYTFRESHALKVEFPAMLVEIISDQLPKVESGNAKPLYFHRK
# Source text: as §3, §1, §2, §4
# PR = PR (Homo sapiens, UniProt P06401); test: as above; assay type: cell-based; conditions: Gal4 DBD-NR, HEK293 cells, 10 µM
# Source text: as §3, §1, §2, §4
# RARα = RARα (Homo sapiens, UniProt P10276); test: as above; assay type: cell-based; conditions: Gal4 DBD-NR, HEK293 cells, 10 µM; RARa
# Chain of RARα (P10276 183-417 limits assumed): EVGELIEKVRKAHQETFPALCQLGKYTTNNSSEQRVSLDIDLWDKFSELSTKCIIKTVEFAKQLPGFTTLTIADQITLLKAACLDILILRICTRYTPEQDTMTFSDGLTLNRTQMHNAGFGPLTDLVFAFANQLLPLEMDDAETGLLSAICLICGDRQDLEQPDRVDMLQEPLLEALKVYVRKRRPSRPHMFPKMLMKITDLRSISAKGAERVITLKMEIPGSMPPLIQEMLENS
# Source text: as §3, §1, §2, §4
# TRα = target: T6, TRα (Homo sapiens, UniProt P10827); test: as above; assay type: cell-based; conditions: Gal4 DBD-NR, HEK293 cells, 10 µM; TRa
# T6 construct: purchased NIMH Psychoactive Drug Screening Program (PDSP); in-house Gal4-NR LBD cotransfection assays
# T6 sequence (P10827 1-410 isoform P10827-2): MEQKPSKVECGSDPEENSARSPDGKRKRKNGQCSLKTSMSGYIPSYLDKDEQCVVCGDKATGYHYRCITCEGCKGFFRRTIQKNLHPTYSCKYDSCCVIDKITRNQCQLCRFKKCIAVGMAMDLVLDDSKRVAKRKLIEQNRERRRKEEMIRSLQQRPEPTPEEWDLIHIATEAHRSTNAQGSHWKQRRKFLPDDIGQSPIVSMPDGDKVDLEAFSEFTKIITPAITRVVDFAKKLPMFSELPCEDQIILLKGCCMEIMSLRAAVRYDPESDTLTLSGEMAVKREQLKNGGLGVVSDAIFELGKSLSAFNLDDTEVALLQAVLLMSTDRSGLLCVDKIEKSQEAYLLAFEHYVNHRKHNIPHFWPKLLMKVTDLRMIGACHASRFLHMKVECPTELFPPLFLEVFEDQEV
# Source text: as §3, §1, §2, §4
# VDR = VDR (Homo sapiens, UniProt P11473); test: as above; assay type: cell-based; conditions: Gal4 DBD-NR, HEK293 cells, 10 µM
# Chain of VDR (P11473 127-427 limits assumed): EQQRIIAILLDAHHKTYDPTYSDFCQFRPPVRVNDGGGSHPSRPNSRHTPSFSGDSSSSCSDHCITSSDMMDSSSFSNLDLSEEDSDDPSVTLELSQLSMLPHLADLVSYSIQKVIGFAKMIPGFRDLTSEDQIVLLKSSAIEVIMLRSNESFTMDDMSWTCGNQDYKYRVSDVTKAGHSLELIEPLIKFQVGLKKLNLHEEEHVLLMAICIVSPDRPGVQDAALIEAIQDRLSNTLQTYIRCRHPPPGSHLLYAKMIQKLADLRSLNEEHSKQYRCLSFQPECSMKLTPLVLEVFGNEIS
# Source text: as §3, §1, §2, §4
smiles,measurement,setting,value
Clc1nnc2ccc(Oc3ccccc3-c3ccccc3)nn12 [STL1267],effect of mutation on STL1267 induced REV-ERBα/NCoR interaction,[1],loss or severe reduction in activity
same,cell viability (Fig 2a source data),"HepG2 cells; HepG2, 1uM",100.259 and 103.289 and 114.098 and 100.562 and 101.976 and 107.785 and 108.29 and 110.916
same,cell viability (Fig 2a source data),"HepG2 cells; HepG2, 2uM",94.905 and 99.6528 and 117.735 and 107.532 and 113.391 and 106.219 and 106.421 and 103.794
same,cell viability (Fig 2a source data),"HepG2 cells; HepG2, 5uM",93.8443 and 82.581 and 107.936 and 102.38 and 83.3891 and 98.2385 and 86.8237 and 96.4202
same,cell viability (Fig 2a source data),"HepG2 cells; HepG2, 10uM",88.9955 and 75.7624 and 90.8643 and 100.208 and 77.7322 and 91.3189 and 89.0965 and 88.0359
same,cell viability (Fig 2a source data),"HepG2 cells; HepG2, 20uM",83.6922 and 74.4997 and 94.7535 and 87.2782 and 90.0057 and 93.8948 and 95.4101 and 87.8338
same,effect on cell viability,"HepG2 cells; HepG2 cells, up to the maximum dose examined (20 μM)",no adverse effects on cell viability
same,number of targets with no detectable binding,[2],41
same,pKi,5-HT1A,< 5.00
same,pKi,5-HT1D,< 5.00
same,pKi,5-HT1E,< 5.00
same,pKi,Alpha1D,< 5.00
same,pKi,Alpha2C,< 5.00
same,pKi,BZP Rat Brain Site,< 5.00
same,pKi,Beta2,< 5.00
same,pKi,M1,< 5.00
same,activity,AR,did not detect activity
same,activity,ERα,did not detect activity
same,activity,ERβ,did not detect activity
same,activity,LXRα,did not detect activity
same,activity,MR,did not detect activity
same,activity,PR,did not detect activity
same,activity,RARα,did not detect activity
same,activity,TRα,did not detect activity
same,activity,VDR,did not detect activity
